Holding throughout (assay type): in vivo, human
A short description of test [1]: Triangle test of taste modification of theobromine solution. Particulars: for taste: compared with theobromine reference; for % of panellists who detected a difference: eight panelists; for taste intensity: theobromine reference bitterness 5.0. From the text: To investigate the influence of taste modification of (−)-catechin-8-C-β-D-glucopyranoside on theobromine in comparison to the aglycons (+)-catechin and (−)-epicatechin as well as further C-glycosides like apigenin-8-C-β-D-glucopyranoside (vitexin) and apigenin-6-C-β-D-glucopyranoside (isovitexin), theobromine (3 mmol/L) was spiked with different concentrations of (−)-catechin-8-C-β-D-glucopyranoside, (+)-catechin, (−)-epicatechin as well as apigenin-8-C-β-D-glucopyranoside (vitexin) and apigenin-6-C-β-D-glucopyranoside (isovitexin).

Test [2] can be described thus: Sensory tasting in alkalized cocoa powder drink. To be noted: for sensory evaluation of bitterness versus control: 50 ppm added (ppm refer to 1 kg of water), 8 persons. The procedure:
The modified product of example 6 was further compared to alkalized cocoa powder (5 g/200 ml)+50 ppm Epicat-6-C-Glc (ppm refer to 1 kg of water).
The modified product of example 6 was further compared to alkalized cocoa powder (5 g/200 ml)+50 ppm Cat-6,8-C-di-Glc (ppm refer to 1 kg of water).
The examples were repeated with the catechin and epicatechin galactosides and the same sensory results were obtained.

Test [3] can be described thus: Sensory tasting in non-alkalized cocoa powder drink. Particulars: 50 ppm added.
The nature of test [4]: Sensory tasting against grape seed extract. Particulars: ca. 10 ppm added to 2000 ppm grape seed extract.
Test [5] in a line: Sensory tasting against pure theobromine. To be noted: ca. 10 ppm added to 600 ppm theobromine. From the text: Theobromine (600 ppm)+ca. 10 ppm 8-C-glucosylated catechin.
Test [6] can be described thus: Sensory tasting in astringent dark chocolate. To be noted: 77 mg of 7.8% solution in propylene glycol per 20 g dark chocolate. The procedure:
77 mg of a solution of catechin-8-C-glucoside dissolved in propylene glycol (7.8%) was added to 20 g of molten dark chocolate with strong astringent taste characteristics. After solidification, the chocolate was tasted against a non-treated reference chocolate.
Food ingredients were prepared starting from green tea extract (5 g) or grape seed extract (5 g) by reaction with glucose (4 g) and 3% K2C03 in 100 ml of water. The reaction was done at 80° C. for exactly 20 min. The resulting flavour reaction mix was freeze-dried to obtain a dark red-brown mass which was then added to astringent tasting chocolate at various levels. In a first screening sensory tasting, the optimum level of addition was identified as 300 ppm.
Ingredients prepared from grape seed extract and tea extract in such a manner when added to dark chocolate at 330 ppm decreased the perceived sensory perception of astringency in the dark chocolate.

The structures appear in SMILES notation.

Regarding `Oc1cc(O)c2c(c1)OC(c1ccc(O)c(O)c1)C(O)C2` (single isomer, unassigned; (-)) [(−)-epicatechin], in test [1] (2.2 μmol/L added), the taste entry is reported as “bitterness”, the “% of panellists who detected a difference” value stood at 0% and the taste intensity came out at 5.0. For the same molecule, in test [1] (22.2 μmol/L added), the taste result is “more cocoa like”, the “% of panellists who detected a difference” value is 50% and the taste intensity was 5.0. Also, in test [1] (222/L μmol/L added), the taste entry was “more cocoa like”, the “% of panellists who detected a difference” value was found to be 50% and the taste intensity entry is on record as “bitterness (4.0)”.
Consider `OCC1OC(c2c(O)c3c(c(C4OC(CO)C(O)C(O)C4O)c2O)OC(c2ccc(O)c(O)c2)C(O)C3)C(O)C(O)C1O` (single isomer, unassigned; (-)) [Cat-6,8-C-di-Glc, (−)-cat-echin-6-C-8-C-β-D-diglucopyranoside], for which the “sensory evaluation of bitterness versus control” value in test [2] was “lower maximum bitterness intensity than control, a flatter bitterness profile and a “softer” bitterness quality”.
As to `Oc1cc(O)c2c(c1)O[C@H](c1ccc(O)c(O)c1)[C@@H](O)C2` [(+)-catechin], the values for the taste result in test [1] (2.2 μmol/L added), in test [1] (22.2 μmol/L added) and in test [1] (222/L μmol/L added) were “bitterness”, “more cocoa like” and “more cocoa like”, respectively. The results for the “% of panellists who detected a difference” value in test [1] (2.2 μmol/L added), in test [1] (22.2 μmol/L added) and in test [1] (222/L μmol/L added) were 0%, 50% and 50%, respectively. In addition, the taste intensity in test [1] (2.2 μmol/L added) is on record as 5.0; in test [1] (22.2 μmol/L added), 5.0; in test [1] (222/L μmol/L added), “bitterness (4.0)”.
For the molecule `OC[C@H]1O[C@@H](c2c(O)cc(O)c3c2O[C@@H](c2ccc(O)c(O)c2)[C@H](O)C3)[C@H](O)[C@@H](O)[C@@H]1O` [(−)-catechin-8-C-β-D-glucopyranoside], in test [2] (50 ppm added, 5 persons), the “taste perception versus reference without addition” value is “less bitter and less astringent”. For the same molecule, the “taste perception versus reference without addition” value in test [3] is “milder and less astringent”. Also, in test [4], the “astringency versus reference of grape seed extract” value is listed as “decrease in astringency”. Moreover, in test [5], the “bitterness intensity compared to pure theobromine” value is “did not a perceive a decrease in bitterness intensity” and the “timing of bitterness perception compared to pure theobromine” value is “delay in bitterness perception”. Besides, in test [6], the “astringency versus non-treated reference chocolate” value is “lower”, the “bitterness versus non-treated reference chocolate” value is listed as “remained unchanged” and the “tasters who noticed a "smoothing out" effect” value is 4 of 5. Further, in test [1] (2.2 μmol/L added), the taste result is “softer, more”; the “% of panellists who detected a difference” value amounted to 10%; the taste intensity result is on record as “(4.5)”. In addition, in test [1] (22.2 μmol/L added), the taste result is on record as “softer, more pleasant”; the “% of panellists who detected a difference” value is 50%; the taste intensity entry was “less bitter (3.5)”. Further, in test [1] (222/L μmol/L added), the taste entry is given as “softer, more pleasant”; the “% of panellists who detected a difference” value is 100%; the taste intensity entry is “less bitter (1.0)”.
Regarding `OC[C@H]1O[C@@H](c2c(O)cc3c(c2O)C[C@@H](O)[C@H](c2ccc(O)c(O)c2)O3)[C@H](O)[C@@H](O)[C@@H]1O` [Cat-6-C-Glc, (−)-catechin-6-C-β-D-glucopyranoside], the “sensory evaluation of bitterness versus control” value in test [2] was “lower maximum bitterness intensity than in the control sample, a flat bitterness profile and a “softer bitterness quality”.
In the case of `OC[C@H]1O[C@@H](c2c(O)cc3c(c2O)C[C@@H](O)[C@@H](c2ccc(O)c(O)c2)O3)[C@H](O)[C@@H](O)[C@@H]1O` [Epicat-6-C-Glc, (−)-epicatechin-6-C-β-D-glucopyranoside], in test [2], the “sensory evaluation of bitterness versus control” value was “lower maximum bitterness intensity than control, a flatter bitterness profile and a “softer” bitterness quality”.
For `O=c1cc(-c2ccc(O)cc2)oc2cc(O)c([C@@H]3O[C@H](CO)[C@@H](O)[C@H](O)[C@H]3O)c(O)c12` [isovitexin, apigenin-6-C-β-D-glucopyranoside], the taste result in test [1] (2.2 μmol/L added), in test [1] (22.2 μmol/L added) and in test [1] (222/L μmol/L added) was “bitterness” each time. Besides, the figures for the “% of panellists who detected a difference” value in test [1] (2.2 μmol/L added), in test [1] (22.2 μmol/L added) and in test [1] (222/L μmol/L added) were 0%, 0% and 50%, respectively. For the same molecule, the taste intensity turned out to be 5.0 in test [1] (2.2 μmol/L added), 5.0 in test [1] (22.2 μmol/L added) and 4.5 in test [1] (222/L μmol/L added).
As for `O=c1cc(-c2ccc(O)cc2)oc2c([C@@H]3O[C@H](CO)[C@@H](O)[C@H](O)[C@H]3O)c(O)cc(O)c12` [vitexin, apigenin-8-C-β-D-glucopyranoside], the “% of panellists who detected a difference” value in test [1] (2 μmol/L added) was 0%; in test [1] (22.2 μmol/L added) it was 0%; in test [1] (222/L μmol/L added) it was 50%. Also, the taste intensity worked out at 5.0 in test [1] (2 μmol/L added), 5.0 in test [1] (22.2 μmol/L added) and 4.5 in test [1] (222/L μmol/L added).
